Assay results from US8247458B2, “Therapeutic agent for diabetic neuropathy” (Taiho Pharmaceutical Co., Ltd., priority 2006, dated 2012).

System: diabetes model rats induced by STZ
Experiment: von Frey test in streptozotocin-induced diabetic neuropathy model rats
Type: in vivo, rat
Conditions: vs STZ control group; for suppression effect of neuropathy (pain threshold, von Frey test): p value under 0.001%; for analgesic effect (pain threshold, threshold of the escape reaction of limb, von Frey test): first day of the measurement (first dose)
Method: By use of male rats with the weight of more than 160 g, 50 mg/kg of streptozotocin (STZ, Sigma-Aldrich Co.) was administered thereto intravenously at the dose of 2 mL/kg to prepare the diabetes model rats induced by STZ (Malcangio M. et al., Pain, 1998). Animals with the blood sugar level of more than 200 mg/dL were adopted as diabetes models. For the measurements of the blood sugar level, the blood (2 μL) collected from the tail vein was measured by use of a measurement chip (Glutest Sensor, Arkray, Inc.) and a portable instrument for measuring blood sugar of Glutest PRO R (Model GT-1661, Arkray, Inc.).
The pain threshold was measured by carrying out the von Frey test on both right and left foot pats of the rats by use of Dynamic Planter Aesthesiometer (Model No. 37400, Ugo Basile, Inc.), and its maximum pressure was set to be 30.0 g, and the arriving time to the maximum pressure was set to be 40 seconds. Eight days after the administration of STZ, the individuals with the pain threshold of higher than a certain level were selected and divided into the groups so that the measured pain thresholds might become even in each group. To the diabetes model rats induced by STZ was administered continuously for one week either 30 mg/kg of suplatast tosylate intraperitoneally or 100 mg/kg of the same orally, and the intraperitoneally administered group and the orally administered group were produced respectively. The diabetes model rats induced by STZ to which solvent (distilled water) was administered orally were designated to the STZ control group. Moreover, the animals of no treatment, i.e. no administration of STZ, to which solvent (distilled water) was administered orally were used as the normal control group. On the 1st, 4th and 7th days after the administration, were measured the pain thresholds of the right and left foot pats for each of the group (8 rats/group), and the analgesic effect was estimated by the threshold of the escape reaction of limb (the total of pain threshold value both of the right and left foot pats). The pain thresholds were measured from 1 to 1.5 hours after the administration, respectively. The Student's test, which is a test for every 2 groups, was applied to the significant difference test of the average value, and the significant level were shown by the following indications:
## (Normal control group vs. STZ control group): p value under 0.001%, and
** (STZ control group vs. orally administered group or intraperitoneally administered group): p value under 0.001%
The orally administered group and the intraperitoneally administered group were compared with the STZ control groups, respectively. Moreover, the STZ control groups were compared with the normal control groups, and the establishments of the diabetes neuropathy model were respectively judged.

Structure (SMILES): CCOCC(O)COc1ccc(NC(=O)CC[S+](C)C)cc1.Cc1ccc(S(=O)(=O)[O-])cc1 (racemic) [suplatast tosylate, (±)-[2-[4-(3-Ethoxy-2-hydroxypropoxy)phenylcarbamoyl]-ethyl]dimethylsulfonium p-toluenesulfonate]
- suppression effect of neuropathy (pain threshold, von Frey test) (30 mg/kg intraperitoneal daily, 4th day): significant suppression effects of neuropathy
- suppression effect of neuropathy (pain threshold, von Frey test) (30 mg/kg intraperitoneal daily, 7th day): significant suppression effects of neuropathy
- analgesic effect (pain threshold, threshold of the escape reaction of limb, von Frey test) (30 mg/kg intraperitoneal): analgesic effects were not found
- suppression effect of neuropathy (pain threshold, von Frey test) (100 mg/kg oral daily, 4th day): significant suppression effects of neuropathy
- suppression effect of neuropathy (pain threshold, von Frey test) (100 mg/kg oral daily, 7th day): significant suppression effects of neuropathy
- analgesic effect (pain threshold, threshold of the escape reaction of limb, von Frey test) (100 mg/kg oral): analgesic effects were not found
